Data taken from US7514432B2, “Compounds and methods of treating cell proliferative diseases, retinopathies and arthritis” (Exonhit Therapeutics SA, priority 2003, dated 2009).

Key:
HMEC-1 cells = assay: Tubule formation (tubulogenesis) assay on Matrigel; format: cell-based, Human; conditions: HMEC1 on Matrigel; for IC50: Homo sapiens, HMEC-1, 6 to 8 hours, read-out: IC50, tubulogenesis (number of junctions)
Method: FIG. 5: Tubulogenesis assay (number of junctions). 2 10^4 Cells were plated on Matrigel-coated wells as described in the material and methods. Pictures of each well were taken after a 7-hours incubation. The “number of junctions” parameter was quantitated using the AngioSys software and data were analyzed using GraphPad Prism for IT50 calculation. Values represent the mean±SEM of 2 to 30 independent experiments.
The endothelial cell tube formation assay, or tubulogenesis assay, is an in vitro assay that is widely accepted to accurately reflect number of terminal stages of the angiogenic process such as attachment, migration and differentiation into tubular structures. In this model, endothelial cells are cultured on a monolayer of reconstituted basement membrane components (Matrigel) and form, in a few hours, capillary-lilke structure. Therefore, this system is a useful and powerful tool for rapidly screening anti-angiogenic agents by monitoring inhibition of endothelial cells morphogenesis on extracellular matrix.
HMEC-1 cell line is cultured in MCDB-131 medium (Sigma) supplemented with 15% FBS, 10 ng/ml recombinant human epidermal growth factor (Invitrogen) and 1 μg/ml hydrocortisone. Cells are cultured to 70-80% confluence. A 96-well plate was coated with Matrigel® Basement Membrane Matrix (Becton Dickinson). 2 10^4 HMEC-1 cells were seeded into each well. The test or control compounds were diluted in DMSO and added to the coated plate. The plate was subsequently incubated for 6 to 8 hours at 37° C., 5% CO2 atmosphere to allow tubule formation. The cells were then incubated with 1.25 μg/ml Calcein AM for 15 minutes at 37° C., 5% CO2. Pictures of each well were taken using a fluorescent microscope and a digital camera (Nikon Coolpix 990). Images were analysed using AngioSys software (TCS Cellworks) that allows quantification of the total tubule length and of the number of junctions, two parameters representative of tubule formation/disruption. Data was analyzed using the GraphPad Prism software, and IT50s (dose leading to 50% inhibition of tubulogenesis) was calculated.

HeLa = assay: Cell viability assay (MTT), HeLa; format: cell-based; conditions: Homo sapiens, 72 h, 10% FBS, 3-day treatment, 1% DMSO
Method: Table 14: 3-day cell viability assay (MTT) in the presence of 10% Fetal Bovine Serum and 1% DMSO, in DLD1, HCT116, MDA-MB-231, MCF7 and HeLa cells. 7.5 10^3 to 1.5 10^4 cells were seeded in 48-well plates in growth medium containing 10% FBS, with or without various concentrations of test compounds. Data were analyzed and IC50s were calculated from dose-response curves using GraphPad Prism. Results summarized in the tables are mean±SEM of 1 to 7 independent experiments.
In order to determine a compound's effect on cell viability, microculture tetrazolium assays (MTT) were performed as described by Carmichael et al. (1996) with modifications. Four human tumoral cell lines, namely HCT116 colon adenocarcinoma, H460 lung carcinoma, MCF-7 and MDA-MB-231 breast carcinoma cell lines, DLD1 colorectal adenocarcinoma, HeLa adenocarcinoma, HepG2 hepatocellular carcinoma. 3 immortalized but non tumorigenic cell lines, namely NIH3T3 mouse fibroblasts (American Type Culture Collection) and primary hepatocytes (Biopredic international), cultured according to their recommendations together with Human Microvasculature Endothelial Cell line HMEC1 (National Center for Infectious Diseases). Briefly, cells were seeded in 48-well plates 24 hours before drug addition. Cells were treated with 0 to 200 μM (11 concentrations) of compound solubilized in DMSO, adjusting the final concentration of DMSO to 1% in the well. 16 hours, and three or six days after treatment, 0.5 mg/ml MTT (Sigma) was added to the medium and cells were incubated for 1-5 hours at 37° C. before solubilization of formazan crystals in 100% DMSO. Absorbance was measured using a spectrophotometer at a wavelength of 550 nm. Data was analyzed using the GraphPad Prism software (GraphPad Software, Inc.), and IC50 (dose leading to 50% cell death) was calculated from the dose-response curves.

[1] = Screening in vivo rising and repeated-dose toxicity study in rats; conditions: for body weight: at 300 mg/kg/day p.o.; for biological changes (hematology and blood biochemistry) / clinical signs / death during the study / tolerability: p.o. 10, 50, 300 mg/kg per day, 3 days each
Method: Screening in vivo rising and repeated-dose toxicity study in rats was performed on 3 rats per compound with the following schedule: • a. day 1 to day 3: 10 mg/kg p.o. per day, • b. day 4 to day 6: 50 mg/kg p.o. per day, • c. day 7 to day 9: 300 mg/kg p.o. per day.
Clinical signs, bodyweight, food consumption, and blood parameters were followed.

Structure (SMILES) | fold more active than reference compound CAI in tubulogenesis (HMEC-1 cells) [fold] | IC50 (HMEC-1 cells) [µM] | IC50 (HeLa) [µM] | body weight [1] | biological changes (hematology and blood biochemistry) [1] | clinical signs [1] | death during the study [1] | tolerability [1]
Cl.Cl.O=c1cc(CN2CCOCC2)occ1OCCCCCSc1ccnc2cc(C(F)(F)F)ccc12 [EHT 1864, 5-(5-(7-(Trifluoromethyl)quinolin-4-ylthio)pentyloxy)-2-(morpholinomethyl)-4H-pyran-4-one dihydrochloride] | 4 | 34.9 ± 3.5 | 23.3 | mean body weight loss | Some limited biological changes | Minimal clinical signs | No death occurred | quite well tolerated up to 300 mg/kg/day
Cl.Cl.Cl.O=c1cc(CN2CCNCC2)occ1OCCCCCSc1ccnc2cc(C(F)(F)F)ccc12 [EHT 8560, 5-(5-(7-(Trifluoromethyl)quinolin-4-ylthio)pentyloxy)-2-((piperazin-1-yl)methyl)-4H-pyran-4-one trihydrochloride] | – | 17 ± 3.6 | 4.4 | mean body weight loss | Some limited biological changes | Minimal clinical signs | No death occurred | quite well tolerated up to 300 mg/kg/day
CN1CCN(Cc2cc(=O)c(OCCCCCSc3ccnc4cc(C(F)(F)F)ccc34)co2)CC1.Cl.Cl.Cl [EHT 9241, 5-(5-(7-(Trifluoromethyl)quinolin-4-ylthio)pentyloxy)-2-((4-methylpiperazin-1-yl)methyl)-4H-pyran-4-one trihydrochloride] | – | 26 ± 8.7 | 5.7 | mean body weight loss | Some limited biological changes | Minimal clinical signs | No death occurred | quite well tolerated up to 300 mg/kg/day
